Assay [1] addresses T1, human serotonin 5-HT7 receptor subtype (Homo sapiens, UniProt P34969).
T1 construct: expressed in transfected cells
In words: Binding affinity for 5-HT7 receptor ([3H]-5-CT displacement, membrane fraction of expressing cells). How it is done:
Binding Affinity for 5-HT7 Receptor
Cultured cells capable of expressing human serotonin 5-HT7 receptor subtype were collected in an assay buffer (50 mM Tris-HCl, pH 7.4, containing […], 0.2 mM EDTA, 0.001% pargyline and 0.1% ascorbic acid) and homogenized with a Potter type homogenizer. Then the membrane fraction was subjected to 20 minutes of centrifugation at 39,000 g and at 4° C. The thus obtained pellet was re-suspended in 1 ml (per cells per one culture dish of 10 cm in diameter) of the assay buffer and homogenized again. This test was carried out on 1 nM in final concentration of [^3H]-5-CT (carboxamide triptamine) and 1 to 1, 000 nM of the compounds of Examples 1 to 90 represented by the general formula (I). A 100 μl of the membrane fraction was added to the reaction tube, final assay volume was adjusted to 500 μl, and the reaction was carried out by incubating the medium at 37° C. for 15 minutes. The incubation was terminated by quickly filtering the reaction system on a GF/B filter which was subsequently washed with 6 ml of cold 50 mM Tris-HCl (pH 7.4). Radioactivity was measured using Packard liquid scintillation counter. Non-specific binding was determined by 10 μM metergoline, and the specific binding was calculated based on the difference. IC50 value of each compound was determined by non-linear least square regression analysis, and dissociation constant Ki was calculated from the value.

The target of another assay is T2, 5-HT2 receptor (Rattus norvegicus, UniProt P14842).
T2 construct: the thus obtained precipitate was used as P2 fraction; from tissue; host or cells: rat cerebral cortex, P2 membrane fraction
T2 sequence (P14842 whole entry): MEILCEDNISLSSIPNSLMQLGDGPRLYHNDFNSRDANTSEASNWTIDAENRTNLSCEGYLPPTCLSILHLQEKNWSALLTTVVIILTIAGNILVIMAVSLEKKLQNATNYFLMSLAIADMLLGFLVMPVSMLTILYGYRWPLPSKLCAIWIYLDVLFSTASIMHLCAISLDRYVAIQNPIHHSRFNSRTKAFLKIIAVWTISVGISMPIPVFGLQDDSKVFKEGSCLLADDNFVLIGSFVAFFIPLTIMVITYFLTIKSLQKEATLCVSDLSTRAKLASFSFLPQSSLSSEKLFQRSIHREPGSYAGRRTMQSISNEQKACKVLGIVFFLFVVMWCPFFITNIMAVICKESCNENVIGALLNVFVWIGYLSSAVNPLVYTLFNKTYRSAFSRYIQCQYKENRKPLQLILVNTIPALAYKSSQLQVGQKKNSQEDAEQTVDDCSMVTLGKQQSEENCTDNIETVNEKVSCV
In words: Binding affinity for 5-HT2 receptor ([3H]ketanserin displacement, rat cerebral cortex P2 fraction). The settings on record: 1 nM [3H]ketanserin, Ki calculated from IC50. The procedure:
Binding Affinity for 5-HT2 receptor
Rat cerebral cortex was homogenized in 10 volumes of 0.32 M sucrose solution and centrifuged for 10 minutes at 900×g, and the resulting supernatant fluid was again centrifuged for 20 minutes at 11,500×g. The thus obtained precipitate was re-suspended in […] Tris-HCl (pH 7.4) buffer and centrifuged for 20 minutes at 39,900×g, and the thus obtained precipitate was used as P2 fraction. The P2 fraction was incubated at 37° C. for 15 minutes in 50 mM Tris-HCl (pH 7.4) buffer containing 1 nM of [^3H] ketanserin and each of the compounds of the present invention and then filtered after the reaction using Whatman GF/B glass filter. The ^3H radioactivity on the filter was measured using a liquid scintillation counter. Non-specific binding was determined in the presence of 10 μM ketanserin, and the specific binding was calculated based on the difference. IC50 value of each compound was determined by non-linear least square regression analysis, and dissociation constant Ki was calculated from the value. The dissociation constant of 5-HT2 obtained by this test, dissociation constant of 5-HT7 obtained in Test Example 1 and their ratio are shown in the following table. As is evident from the results shown in the following table, compounds of the present invention show their affinity for 5-HT2 receptor too, but they bind more selectively to 5-HT7 receptor.

[2] abbreviates: human 5-HT7 expressing cultured cells, 1 nM [3H]-5-CT, Ki calculated from IC50, read-out: Ki (nM) of 5-HT7.

Read-outs that look alike come from different tables or passages of the source.

T1 sequence (P34969 whole entry): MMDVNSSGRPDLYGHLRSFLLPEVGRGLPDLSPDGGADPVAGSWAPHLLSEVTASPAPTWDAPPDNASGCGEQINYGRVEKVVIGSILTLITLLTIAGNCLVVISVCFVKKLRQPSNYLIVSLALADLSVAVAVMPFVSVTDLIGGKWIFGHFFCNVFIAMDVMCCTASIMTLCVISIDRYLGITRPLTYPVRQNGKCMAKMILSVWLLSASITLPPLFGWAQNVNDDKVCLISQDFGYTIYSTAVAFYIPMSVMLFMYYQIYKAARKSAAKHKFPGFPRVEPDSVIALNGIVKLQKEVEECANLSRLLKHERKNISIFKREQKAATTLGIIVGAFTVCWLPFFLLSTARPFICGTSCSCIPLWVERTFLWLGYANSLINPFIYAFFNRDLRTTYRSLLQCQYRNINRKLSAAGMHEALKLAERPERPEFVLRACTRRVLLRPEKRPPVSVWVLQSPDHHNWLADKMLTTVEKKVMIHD

With `O=C1Nc2cccc3c2C1(CCCCN1CCN(c2ccccn2)CC1)CCC3` (stereo not shown) [Compound 87, 2a-[4-{4-(^2-Pyridyl)piperazinyl}butyl]-2a,3,4,5-tetrahydrobenz[cd]indole-2(1H)-one], the Ki in assay [1] (setting [2]) was 11 nM; on 5-HT2 receptor, 120 nM. For the same compound, in assay [1] (ratio of dissociation constants Ki 5-HT2 / Ki 5-HT7), the 5-HT2/5-HT7 stood at 11.0.

Regarding `COc1ccccc1N1CCN(CCCCC23CCCc4cccc(c42)NC3=O)CC1` (stereo not shown) [Compound 5, 2a-[4-{4-(2-Methoxyphenyl)piperazinyl}butyl]-2a,3,4,5-tetrahydrobenz[cd]indole-2(1H)-one], the Ki is 8.9 nM in assay [1] (setting [2]) and 61 nM on 5-HT2 receptor.

`COC1(c2ccccc2)CCN(CCCCC23CCCc4cccc(c42)NC3=O)CC1` (stereo not shown) [Compound 56, 2a-[4-(4-Methoxy-4-phenyl-piperidyl)butyl]-2a,3,4,5-tetrahydrobenz[cd]indole-2(1H)-one]: the values for the Ki (in assay [1]; at 5-HT2 receptor) were 27 nM and 414 nM, respectively.

The record behind these values is patent US6355642B1, “Tetrahydrobenzindole compounds” (Meiji Seika Kaisha, Ltd., priority 1996, dated 2002).
